Columns and labels:
[1] = target: T1, Human CB1 receptor (hCB1) (Homo sapiens, UniProt P21554); assay: hCB1 GTPγS binding; assay type: biochemical; conditions: human CB1 receptor membranes, GTPγ35S; for EC50: unit inferred; for Emax: maximal stimulated binding determined with 10 μM Win 55,212-2
T1 construct: purchased Receptor Biology
Method: hCB1 and hCB2 GTPγS Binding
Human CB1 receptor from Receptor Biology (hCB1) or human CB2 receptor membranes (BioSignal) are thawed at 37° C., passed 3 times through a 25-gauge blunt-end needle and diluted in the GTPγS binding buffer (50 mM Hepes, 20 mM NaOH, 100 mM NaCl, 1 mM EDTA, 5 mM MgCl2, pH 7.4, 0.1% BSA). The EC50 and Emax of the compounds of the invention are evaluated from 10-point dose-response curves done in 300 μl with the appropriate amount of membrane protein and 100000-130000 dpm of GTPg^35S per well (0.11-0.14 nM). The basal and maximal stimulated binding is determined in absence and presence of 1 μM (hCB2) or 10 μM (hCB1) Win 55,212-2 respectively. The membranes are pre-incubated for 5 minutes with 56.25 μM (hCB2) or 112.5 μM (hCB1) GDP prior to distribution in plates (15 μM (hCB2) or 30 μM (hCB1) GDP final). The plates are vortexed and incubated for 60 minutes at room temperature, filtered on Unifilters GF/B (presoaked in water) with the Tomtec or Packard harvester using 3 ml of wash buffer (50 mM Tris, 5 mM MgCl2, 50 mM NaCl, pH 7.0). The filters are dried for 1 hour at 55° C. The radioactivity (cpm) is counted in a TopCount (Packard) after adding 65 μl/well of MS-20 scintillation liquid. Antagonist reversal studies are done in the same way except that (a) an agonist dose-response curve is done in the presence of a constant concentration of antagonist, or (b) an antagonist dose-response curve is done in the presence of a constant concentration of agonist.

[2] = target: T1, Human CB1 receptor (hCB1); assay: hCB1 receptor binding (3H-CP55,940 displacement); conditions: human CB1 receptor membranes
Method: hCB1 and hCB2 Receptor Binding
Human CB1 receptor from Receptor Biology (hCB1) or human CB2 receptor from BioSignal (hCB2) membranes are thawed at 37° C., passed 3 times through a 25-gauge blunt-end needle, diluted in the cannabinoid binding buffer (50 mM Tris, 2.5 mM EDTA, 5 mM MgCl2, and 0.5 mg/mL BSA fatty acid free, pH 7.4) and aliquots containing the appropriate amount of protein are distributed into 96-well plates. The IC50 of the compounds of the invention at hCB1 and hCB2 are evaluated from 10-point dose-response curves done with ^3H-CP55,940 at 20000 to 25000 dpm per well (0.17-0.21 nM) in a final volume of 300 μl. The total and non-specific binding are determined in the absence and presence of 0.2 μM of HU210 respectively. The plates are vortexed and incubated for 60 minutes at room temperature, filtered through Unifilters GF/B (presoaked in 0.1% polyethyleneimine) with the Tomtec or Packard harvester using 3 mL of wash buffer (50 mM Tris, 5 mM MgCl2, 0.5 mg BSA pH 7.0). The filters are dried for 1 hour at 55° C. The radioactivity (cpm) is counted in a TopCount (Packard) after adding 65 μl/well of MS-20 scintillation liquid.
Based on the above assays, the dissociation constant (Ki) for a particular compound of the invention towards a particular receptor is determined using the following equation: […]

T1 sequence (P21554 whole entry): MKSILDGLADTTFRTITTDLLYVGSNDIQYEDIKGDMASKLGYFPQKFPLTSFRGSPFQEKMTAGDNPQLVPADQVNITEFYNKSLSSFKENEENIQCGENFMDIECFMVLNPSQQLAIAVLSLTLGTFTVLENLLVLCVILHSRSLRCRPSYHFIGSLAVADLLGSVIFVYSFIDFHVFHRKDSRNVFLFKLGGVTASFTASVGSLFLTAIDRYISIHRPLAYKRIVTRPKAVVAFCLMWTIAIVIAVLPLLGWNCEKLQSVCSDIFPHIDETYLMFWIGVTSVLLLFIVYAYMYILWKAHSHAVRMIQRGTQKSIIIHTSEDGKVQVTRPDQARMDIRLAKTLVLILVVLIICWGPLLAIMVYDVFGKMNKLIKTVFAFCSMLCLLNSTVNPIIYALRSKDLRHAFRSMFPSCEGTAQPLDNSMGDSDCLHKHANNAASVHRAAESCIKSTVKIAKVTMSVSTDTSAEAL

Structure (SMILES)	EC50 [1] [nM]	Emax [1] [%]	Ki [2] [nM]
CC(C)(C)c1nc2cc(C(=O)N3CCC(C(=O)NC4CC4)CC3)ccc2n1CC1CCC(F)(F)CC1	16.7	115	19.2
CC(C)(C)c1nc2cc(C(=O)N3CCC(C(=O)NC4CC4)CC3)ccc2n1CC1CCCCC1	37.7	134	23.8
Cc1cc(NC(=O)C2CCN(C(=O)c3ccc4c(c3)nc(C(C)(C)C)n4CC3CCC(F)(F)CC3)CC2)no1	1770	132	
